Assay results published in ChEMBL document CHEMBL1909046, “DrugMatrix in vitro pharmacology data”.
*1 amine or outer side, *2 acyl side, *3 side chain or, on linkers, in order; H or OH if unused. Where a SMILES comes first, the peptide text is derived from it. Bridges are numbered along the chain shown (N, C = ends). Roman numbers before positions name the chains, in order. [ ]: non-standard residue; d: D form. Actinocin(1to9) = Cc1c2oc3c(C)ccc(C(=O)[*:2])c3nc-2c(C(=O)[*:1])c(N)c1=O; NMeV = CN[C@H](C(=O)O)C(C)C; Sar = CNCC(=O)O

Columns and labels:
[1] = target: Tyrosine-protein kinase Fyn (Homo sapiens, UniProt P06241); experiment: biochemical; format: cell-based, Insect cells;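 also: enzymatic inhibition of Fyn kinase activity measured with Poly(Glu:Tyr) as the phosphorylation substrate; in other assays of this panel Not Active means under 50% inhibition at 10 µM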
Adenosine receptor A2a = Adenosine receptor A2a (Homo sapiens, UniProt P29274); experiment: DRUGMATRIX: Adenosine A2A radioligand binding (ligand: […]); format: cell membranes, Membrane; conditions: hek293; Not Active = under 50% inhibition at 10 µM
Adenosine receptor A1 = target: T1, Adenosine receptor A1 (Homo sapiens, UniProt P30542); format: cell membranes, CHO, Membrane; conditions: cho;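 also: radioligand binding assay at the adenosine A1 receptor, with DPCPX serving as the labelled ligand; in other assays of this panel Not Active means under 50% inhibition at 10 µM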
T1 sequence (P30542 whole entry): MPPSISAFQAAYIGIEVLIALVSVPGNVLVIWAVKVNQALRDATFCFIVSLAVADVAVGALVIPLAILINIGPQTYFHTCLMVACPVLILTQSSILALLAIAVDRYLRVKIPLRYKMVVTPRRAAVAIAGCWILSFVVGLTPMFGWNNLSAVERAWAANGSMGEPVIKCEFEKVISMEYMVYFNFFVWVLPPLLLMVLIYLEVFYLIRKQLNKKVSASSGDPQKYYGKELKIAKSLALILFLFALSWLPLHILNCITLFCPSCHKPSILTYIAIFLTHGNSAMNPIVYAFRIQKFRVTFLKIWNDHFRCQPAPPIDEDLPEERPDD

[2] = target: Beta-3 adrenergic receptor (Homo sapiens, UniProt P13945); experiment: DRUGMATRIX: Adrenergic beta3 radioligand binding (ligand: [125I] Cyanopindolol); format: cell membranes, HEK293, Membrane; conditions: Not Active = under 50% inhibition at 10 µM
[3] = target: T2, Vasoactive intestinal polypeptide receptor 1 (Homo sapiens, UniProt P32241); format: cell membranes, Membrane; conditions: ht-29; also: in other assays of this panel Not Active means under 50% inhibition at 10 µM
T2 sequence (P32241 whole entry): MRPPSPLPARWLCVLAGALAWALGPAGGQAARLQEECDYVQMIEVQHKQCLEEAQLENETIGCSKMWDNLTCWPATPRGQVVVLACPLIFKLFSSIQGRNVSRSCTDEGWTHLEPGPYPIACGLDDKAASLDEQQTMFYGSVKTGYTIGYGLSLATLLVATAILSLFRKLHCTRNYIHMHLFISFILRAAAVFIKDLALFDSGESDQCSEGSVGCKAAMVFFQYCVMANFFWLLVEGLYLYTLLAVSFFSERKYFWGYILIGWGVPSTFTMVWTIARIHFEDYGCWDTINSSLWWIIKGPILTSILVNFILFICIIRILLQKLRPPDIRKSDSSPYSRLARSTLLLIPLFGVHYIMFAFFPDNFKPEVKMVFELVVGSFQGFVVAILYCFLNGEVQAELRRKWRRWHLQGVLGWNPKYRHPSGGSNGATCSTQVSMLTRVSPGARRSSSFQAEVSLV

Melanocortin receptor 3 = Melanocortin receptor 3 (Homo sapiens, UniProt P41968); format: cell membranes, HEK293, Membrane; conditions: hek293; also: in other assays of this panel Not Active means under 50% inhibition at 10 µM
[4] = DRUGMATRIX: Purinergic P2X radioligand binding (ligand: [3H] alpha, beta-Methylene-ATP); format: cell membranes, Oryctolagus cuniculus, New Zealand albino, Urinary bladder, Membrane; conditions: Not Active = under 50% inhibition at 10 µM
Cytochrome P450 1A2 = target: T3, Cytochrome P450 1A2 (Homo sapiens, UniProt P05177); conditions: bti-tn-5b1-4; also: in other assays of this panel Not Active means under 50% inhibition at 10 µM
T3 sequence (P05177 whole entry): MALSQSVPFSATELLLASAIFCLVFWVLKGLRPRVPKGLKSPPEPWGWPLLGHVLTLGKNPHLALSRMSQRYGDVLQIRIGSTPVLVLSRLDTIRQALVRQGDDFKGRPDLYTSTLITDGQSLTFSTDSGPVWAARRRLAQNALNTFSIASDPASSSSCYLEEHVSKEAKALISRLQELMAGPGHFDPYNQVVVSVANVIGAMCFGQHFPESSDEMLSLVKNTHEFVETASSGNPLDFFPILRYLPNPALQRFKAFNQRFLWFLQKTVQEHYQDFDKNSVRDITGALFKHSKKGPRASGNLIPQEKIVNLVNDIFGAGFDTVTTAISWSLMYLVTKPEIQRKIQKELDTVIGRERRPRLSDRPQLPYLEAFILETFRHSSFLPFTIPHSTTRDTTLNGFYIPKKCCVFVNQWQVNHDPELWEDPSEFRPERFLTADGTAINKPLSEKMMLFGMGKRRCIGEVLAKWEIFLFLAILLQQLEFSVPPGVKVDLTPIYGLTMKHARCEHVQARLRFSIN

Chain of Tyrosine-protein kinase Fyn (P06241 whole entry): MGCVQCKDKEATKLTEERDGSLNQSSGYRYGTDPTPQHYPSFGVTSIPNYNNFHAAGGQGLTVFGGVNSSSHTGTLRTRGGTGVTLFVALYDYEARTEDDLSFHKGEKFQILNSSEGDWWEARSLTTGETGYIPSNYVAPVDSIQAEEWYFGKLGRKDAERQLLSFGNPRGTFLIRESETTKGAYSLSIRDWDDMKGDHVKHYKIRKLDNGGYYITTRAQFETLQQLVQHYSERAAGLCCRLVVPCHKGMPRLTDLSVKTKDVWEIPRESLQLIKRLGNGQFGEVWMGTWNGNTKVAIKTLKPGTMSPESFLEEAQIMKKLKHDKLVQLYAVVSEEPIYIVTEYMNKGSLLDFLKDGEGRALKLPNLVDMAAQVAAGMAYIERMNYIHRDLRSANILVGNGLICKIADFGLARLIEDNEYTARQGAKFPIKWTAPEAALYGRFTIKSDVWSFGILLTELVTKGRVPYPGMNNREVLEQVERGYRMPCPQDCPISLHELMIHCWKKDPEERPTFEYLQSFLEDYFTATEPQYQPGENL
Chain of Beta-3 adrenergic receptor (P13945 whole entry): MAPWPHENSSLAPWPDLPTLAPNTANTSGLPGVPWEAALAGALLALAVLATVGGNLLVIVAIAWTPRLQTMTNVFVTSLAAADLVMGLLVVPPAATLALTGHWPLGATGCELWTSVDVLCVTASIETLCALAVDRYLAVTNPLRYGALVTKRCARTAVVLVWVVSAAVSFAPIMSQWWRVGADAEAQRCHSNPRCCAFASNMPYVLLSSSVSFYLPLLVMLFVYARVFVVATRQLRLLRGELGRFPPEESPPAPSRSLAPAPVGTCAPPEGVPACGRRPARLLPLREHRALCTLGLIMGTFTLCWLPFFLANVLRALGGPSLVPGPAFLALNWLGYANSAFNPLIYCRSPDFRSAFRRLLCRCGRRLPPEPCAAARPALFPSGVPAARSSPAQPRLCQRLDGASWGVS
Chain of Melanocortin receptor 3 (P41968 whole entry): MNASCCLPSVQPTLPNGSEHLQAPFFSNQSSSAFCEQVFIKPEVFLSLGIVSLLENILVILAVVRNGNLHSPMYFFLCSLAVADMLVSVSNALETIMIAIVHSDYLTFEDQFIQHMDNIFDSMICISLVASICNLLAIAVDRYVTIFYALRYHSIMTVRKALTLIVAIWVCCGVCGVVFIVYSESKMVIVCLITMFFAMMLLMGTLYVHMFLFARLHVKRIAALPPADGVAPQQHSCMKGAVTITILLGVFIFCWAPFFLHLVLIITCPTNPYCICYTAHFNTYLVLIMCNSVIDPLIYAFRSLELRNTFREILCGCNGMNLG
Chain of Adenosine receptor A2a (P29274 whole entry): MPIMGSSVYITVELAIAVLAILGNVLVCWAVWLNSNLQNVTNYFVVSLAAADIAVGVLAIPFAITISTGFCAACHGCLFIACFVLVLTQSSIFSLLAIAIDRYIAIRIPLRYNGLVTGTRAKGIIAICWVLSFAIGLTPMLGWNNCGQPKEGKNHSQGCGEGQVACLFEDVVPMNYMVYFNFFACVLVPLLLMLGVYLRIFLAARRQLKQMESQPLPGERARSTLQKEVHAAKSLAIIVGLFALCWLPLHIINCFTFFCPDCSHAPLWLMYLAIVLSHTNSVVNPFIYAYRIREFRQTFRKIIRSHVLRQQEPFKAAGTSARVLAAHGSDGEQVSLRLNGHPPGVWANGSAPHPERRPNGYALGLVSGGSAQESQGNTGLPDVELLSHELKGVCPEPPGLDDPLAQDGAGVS

Row | Compound | IC50 ([1]; insect cells) | IC50 (Adenosine receptor A2a) | IC50 (Adenosine receptor A1) | IC50 ([2]; hek293) | IC50 [3] | IC50 (Melanocortin receptor 3) | IC50 [4] | Ki [4] | IC50 (Cytochrome P450 1A2) | Ki (Cytochrome P450 1A2) | IC50 ([2]; read-out: IC50) [µM] | Ki ([2]; read-out: Ki) [µM] | IC50 ([1]; read-out: IC50) [µM]
1 | Cc1c2oc3c(C)ccc(C(=O)N[C@@H]4C(=O)N[C@H](C(C)C)C(=O)N5CCC[C@H]5C(=O)N(C)CC(=O)N(C)[C@@H](C(C)C)C(=O)O[C@@H]4C)c3nc-2c(C(=O)N[C@@H]2C(=O)N[C@H](C(C)C)C(=O)N3CCC[C@H]3C(=O)N(C)CC(=O)N(C)[C@@H](C(C)C)C(=O)O[C@@H]2C)c(N)c1=O [DACTINOMYCIN] (I: T[dV]P[Sar][NMeV] / II: T[dV]P[Sar][NMeV]; ester I:1-I:C, II:1-II:C; linker I:N-II:N via Actinocin(1to9)) | Not Active | Not Active | Not Active | Not Active | Not Active | Not Active | Not Active | Not Active | Not Active | Not Active |  |  | 
2 | Cc1c(O)c(=O)ccn1C [DEFERIPRONE] | Not Active | Not Active | Not Active | Not Active | Not Active | Not Active | Not Active | Not Active | Not Active | Not Active |  |  | 
3 | CNCCCN1c2ccccc2CCc2ccccc21 [DESIPRAMINE] | Not Active | Not Active | Not Active | Not Active | Not Active | Not Active | Not Active | Not Active | Not Active | Not Active |  |  | 
4 | O=c1oc2ccccc2c(O)c1Cc1c(O)c2ccccc2oc1=O [DICUMAROL] | Not Active | Not Active | Not Active | Not Active | Not Active | Not Active | Not Active | Not Active | Not Active | Not Active |  |  | 
5 | C[C@H]1O[C@@H](O[C@H]2[C@@H](O)C[C@H](O[C@H]3[C@@H](O)C[C@H](O[C@H]4CC[C@@]5(C)[C@H](CC[C@@H]6[C@@H]5C[C@@H](O)[C@]5(C)[C@@H](C7=CC(=O)OC7)CC[C@]65O)C4)O[C@@H]3C)O[C@@H]2C)C[C@H](O)[C@@H]1O [DIGOXIN] | Not Active | Not Active | Not Active | Not Active | Not Active | Not Active | Not Active | Not Active | Not Active | Not Active |  |  | 
6 | CC(C)[C@@]1(NC(=O)[C@@H]2C[C@@H]3c4cccc5[nH]cc(c45)C[C@H]3N(C)C2)O[C@@]2(O)[C@@H]3CCCN3C(=O)[C@H](Cc3ccccc3)N2C1=O.CS(=O)(=O)O [DIHYDROERGOCRISTINE MESYLATE] | Not Active | Not Active | Not Active |  | Not Active | Not Active | Not Active | Not Active | Not Active | Not Active | 3.31 | 2.48 | 
7 | CC(=O)O[C@@]12CO[C@@H]1C[C@H](O)[C@@]1(C)C(=O)[C@H](O)C3=C(C)[C@@H](OC(=O)[C@H](O)[C@@H](NC(=O)OC(C)(C)C)c4ccccc4)C[C@@](O)([C@@H](OC(=O)c4ccccc4)[C@H]21)C3(C)C.O.O.O [DOCETAXEL] | Not Active | Not Active | Not Active | Not Active | Not Active | Not Active | Not Active | Not Active | Not Active | Not Active |  |  | 
8 | COc1cc2nc(N3CCN(C(=O)C4COc5ccccc5O4)CC3)nc(N)c2cc1OC (stereo unspecified) [DOXAZOSIN] | Not Active | Not Active | Not Active | Not Active | Not Active | Not Active | Not Active | Not Active | Not Active | Not Active |  |  | 
9 | C[C@H]1c2cccc(O)c2C(=O)C2=C(O)[C@]3(O)C(=O)C(C(N)=O)=C(O)[C@@H](N(C)C)[C@@H]3[C@@H](O)[C@@H]21.O [DOXYCYCLINE] | Not Active | Not Active | Not Active | Not Active | Not Active | Not Active | Not Active | Not Active | Not Active | Not Active |  |  | 
10 | O=C(CCCN1CC=C(n2c(=O)[nH]c3ccccc32)CC1)c1ccc(F)cc1 [DROPERIDOL] | Not Active | Not Active | Not Active | Not Active | Not Active | Not Active | Not Active | Not Active | Not Active | Not Active |  |  | 
11 | CC(C)[C@H]1C(=O)N2CCC[C@H]2[C@]2(O)O[C@](NC(=O)[C@@H]3C=C4c5cccc6[nH]cc(c56)C[C@H]4N(C)C3)(C(C)C)C(=O)N12 [ERGOCORNINE] | Not Active | Not Active | Not Active | Not Active | Not Active | Not Active | Not Active | Not Active | Not Active | Not Active |  |  | 
12 | OC(Cn1cncn1)(Cn1cncn1)c1ccc(F)cc1F [FLUCONAZOLE] | Not Active | Not Active | Not Active | Not Active | Not Active | Not Active | Not Active | Not Active | Not Active | Not Active |  |  | 
13 | CC(C)C(=O)Nc1ccc([N+](=O)[O-])c(C(F)(F)F)c1 [FLUTAMIDE] | Not Active | Not Active | Not Active | Not Active | Not Active | Not Active | Not Active | Not Active | Not Active | Not Active |  |  | 
14 | CC1(C)O[C@@H]2C[C@H]3[C@@H]4CCC5=CC(=O)CC[C@]5(C)[C@@]4(F)[C@@H](O)C[C@]3(C)[C@]2(C(=O)CCl)O1 [HALCINONIDE] | Not Active | Not Active | Not Active | Not Active | Not Active | Not Active | Not Active | Not Active | Not Active | Not Active |  |  | 
15 | O=c1[nH]c(=O)n([C@H]2C[C@H](O)[C@@H](CO)O2)cc1I [IDOXURIDINE] | Not Active | Not Active | Not Active | Not Active | Not Active | Not Active | Not Active | Not Active | Not Active | Not Active |  |  | 
16 | CC1Cc2ccccc2N1NC(=O)c1ccc(Cl)c(S(N)(=O)=O)c1 (stereo unspecified) [INDAPAMIDE] | Not Active | Not Active | Not Active | Not Active | Not Active | Not Active | Not Active | Not Active | Not Active | Not Active |  |  | 
17 | Nc1nc(N)nc(-c2cc(Cl)ccc2Cl)n1.O=C(O)/C=C\C(=O)O [IRSOGLADINE MALEATE] | Not Active | Not Active | Not Active | Not Active | Not Active | Not Active | Not Active | Not Active | Not Active | Not Active |  |  | 
18 | CCC(C)n1ncn(-c2ccc(N3CCN(c4ccc(OCC5COC(Cn6cncn6)(c6ccc(Cl)cc6Cl)O5)cc4)CC3)cc2)c1=O (stereo unspecified) [ITRACONAZOLE] |  | Not Active | Not Active | Not Active | Not Active | Not Active | Not Active | Not Active | Not Active | Not Active |  |  | 3.89
